Source: patent publication US20250092065A1, “2-(INDAZOL-5-YL)-6-(PIPERIDIN-4-YL)-1,7-NAPHTHYRIDINE DERIVATIVES AND RELATED COMPOUNDS AS MODULATORS FOR SPLICING NUCLEIC ACIDS AND FOR THE TREATMENT OF PROLIFERATIVE DISEASES” (REMIX THERAPEUTICS INC., priority 2022, published 2025)
Read-outs that look alike come from different tables or passages of the source.

How the values were obtained:
[1] = system: MYB; experiment: HiBiT protein abundance assay, MYB (K562 HiBiT knock-in); assay type: cell-based, human; conditions: HiBiT knock-in K562 cells, 24 hours, top dose 10 μM
Method: (§1) Compounds described herein were used to screen for effects on quantitative protein abundance using a HiBit assay system (Promega). Quantitative protein abundance was determined by measuring the protein levels of HiBit-tagged protein targets expressed in cell culture via luminescence using the Nano-Glo HiBiT Lytic Detection System, which uses a split complementation assay format to reconstitute NanoBiT enzyme to generate a luminescent signal. A protein abundance assay was developed such that endogenous protein targets could be modified with the HiBiT peptide tag and their abundance could be assessed after compound treatment. Briefly, K562 cell lines containing a HiBiT-modification were treated with various compounds described herein (e.g., compounds of Formulas (I), or (II)). After treatment for 24 hours, the protein abundance of a specific target was determined by measuring luminescence.
(§2) Cells were maintained in IMIDM with 10% FBS. Before the assay, cells were diluted with […] growth media (IMIDM+[…] media) and were seeded in a 384-well plate at a density of 10000 cells/well (for each cell line listed in Table 6). Each compound was prepared as a 10-point 3-fold serial dilution in DMSO with the top dose at a final concentration of 10 μM in the well. Unmodified K562 cells were added at the previously specified density with DMSO to serve as an assay baseline and positive control (PC) and DMSO only with the respective modified cell lines was added to the negative control (NC) columns. Final DMSO concentration was kept at or below 0.25%. Treated cell plates were placed in an incubator at 37° C. with […] for 24 hours. After 24 hours, 25 μL of Complete HiBit Lytic reagent was added to each well at room temperature (e.g. one plate requiring 10 mL Lytic Buffer, 100 μL LgBiT Protein, 200 μL Lytic Substrate), shaken for 5 minutes at 600 RPM, then left to sit for 10 minutes for signal to stabilize before reading on a Spark Cyto plate reader (Tecan) with a 500 ms measurement time.
(§3) To determine compound effects on protein abundance of each target in Table 6, the percent response for each respective cell line was calculated at each compound concentration as follows:
(§4) % response=100*(S−PC)(NC−PC)
(§5) For the normalized response at each concentration, a four-parameter logistical regression was fit to the data and the response was interpolated at the […] to determine a concentration for protein abundance at 50% (IC50) the untreated control.

[2] = system: HTT; experiment: HiBiT protein abundance assay, HTT (K562 HiBiT knock-in); assay type: cell-based, human; conditions: HiBiT knock-in K562 cells, 24 hours, top dose 10 μM
Method: as §1, §2, §3, §4, §5

[3] = system: Target C; experiment: HiBiT protein abundance assay, Target C (K562 HiBiT knock-in); assay type: cell-based, human; conditions: HiBiT knock-in K562 cells, 24 hours, top dose 10 μM
Method: as §2, §3, §4, §5

[4] = system: HTT mRNA; experiment: RT-qPCR splicing assay, HTT mRNA canonical (CJ) and alternative (AJ) junction; assay type: cell-based, human; conditions: Homo sapiens
Method: (§6) Compounds described herein were used to modulate RNA transcript abundance in cells. The expression of a target mRNA was measured by detecting the formation of an exon-exon junction in the canonical transcript (CJ). A compound mediated exon-inclusion event was detected by observing an increase in formation of a new junction with an alternative exon (AJ). Real-time qPCR assays were used to detect these splicing switches and interrogate the potency of various compounds towards different target genes. A high-throughput real time quantitative PCR (RT-qPCR) assay was developed to measure these two isoforms of the mRNA (CJ and AJ) for exemplary genes, such as HTT, SMN2, and MYB, together with a control housekeeping gene, GAPDH or GUSB or PPIA, used for normalization. Briefly, the A673 or K562 cell line was treated with various compounds described herein (e.g., compounds of Formula (I)). After treatment, the levels of the HTT, MYB, or SMN2 mRNA targets were determined from each sample of cell lysate by cDNA synthesis followed by qPCR.
(§7) The A673 cell line was cultured in DMEM with 10% FBS. Cells were diluted with full growth media and plated in a 96-well plate (15,000 cells in 100 ul media per well). The plate was incubated at 37° C. with 5% CO2 for 24 hours to allow cells to adhere. An 11-point 3-fold serial dilution of the compounds was made in DMSO then diluted in media in an intermediate plate. Compounds were transferred from the intermediate plate to the cell plate with the top dose at a final concentration of 10 uM in the well. Final DMSO concentration was kept at or below 0.25%. The cell plate was returned to the incubator at 37° C. with 5% CO2 for an additional 24 hours.
(§8) The K562 cell line was cultured in IMDM with 10% FBS. For K562, cells were diluted with full growth media and plated in either a 96-well plate (50,000 cells in 50 uL media per well) or a 384-well plate (8,000-40,000 cells in 45 uL media per well). An 11-point 3-fold serial dilution of the compounds were made in DMSO then diluted in media in an intermediate plate. Compound was transferred from the intermediate plate to the cell plate with the top dose at a final concentration of 10 uM in the well. Final DMSO concentration was kept at or below 0.25%. Final volume was 100 uL for 96-well plate and 50 uL for 384-well plate. The cell plate was then placed in an incubator at 37° C. with 5% CO2 for 24 hours.
(§9) The cells were then gently washed with 50 uL-100 uL cold PBS before proceeding to addition of lysis buffer. 30 uL-50 μL of room temperature lysis buffer with DNAse I (and optionally RNAsin) was added to each well. Cells were shaken/mixed thoroughly at room temperature for 5-10 minutes for lysis to take place and then 3 uL-5 μL of room temperature stop solution was added and wells were shaken/mixed again. After 2-5 minutes, the cell lysate plate was transferred to ice for RT-qPCR reaction setup. The lysates could also be frozen at −80° C. for later use.
(§10) In some cases, a direct lysis buffer was used. An appropriate volume of 3× lysis buffer (10 mM Tris, 150 mM NaCl, 1.5%-2.5% Igepal and 0.1-1 U/uL RNAsin, pH 7.4) was directly added to either K562 or A673 cells in media and mixed by pipetting 3 times. The plates were then incubated at room temperature with shaking/rocking for 20-50 minutes to allow for lysis to take place. After this time, the cell lysate plate was transferred to ice to set up for the RT-qPCR reactions. The lysates could also be frozen at −80° C. for later use.
(§11) To set up 10 uL RT-qPCR reactions, cell lysates were transferred to 384-well qPCR plates containing the master mix according to the table below. The plates were sealed, gently vortexed, and spun down before the run. The volumes were adjusted accordingly in some instances where the reaction was carried in 20 μL. The table below summarizes the components of the RT-qPCR reactions:
(§12) The RT-qPCR reaction was performed using a QuantStudio (ThermoFisher) under the following fast cycling conditions. […]

[5] = system: MYB mRNA; experiment: RT-qPCR splicing assay, MYB mRNA canonical (CJ) and alternative (AJ) junction; assay type: cell-based, human; conditions: Homo sapiens
Method: as §6, §7, §8, §9, §10, §11, §12

[6] = system: K562 cells; experiment: Cell Titer Glo 2.0 cell viability (toxicity) assay, K562; conditions: 500 cells/well, 72 hours
[7] = system: SMN2 mRNA; experiment: RT-qPCR splicing assay, SMN2 mRNA; assay type: cell-based, human; conditions: Homo sapiens, canonical junction qPCR panel, Table 4; read-out: SMN2 IC50 (decrease in CJ mRNA levels)
Method: as §6, §7, §8, §9, §10, §11, §12

[8] = RT-qPCR, HTT alternative junction mRNA increase, read-out: HTT AJ (increase in alternative junction mRNA, AC50)
[9] = RT-qPCR, HTT canonical junction mRNA decrease, read-out: HTT CJ (decrease in canonical junction mRNA, IC50)
[10] = canonical junction qPCR panel, Table 4, read-out: HTT IC50 (decrease in CJ mRNA levels)
[11] = RT-qPCR, MYB alternative junction mRNA increase, read-out: MYB AJ (increase in alternative junction mRNA, AC50)
[12] = RT-qPCR, MYB canonical junction mRNA decrease, read-out: MYB CJ (decrease in canonical junction mRNA, IC50)
[13] = canonical junction qPCR panel, Table 4, read-out: MYB IC50 (decrease in CJ mRNA levels)

| SMILES | IC50 [1] [nM] | IC50 [2] [nM] | IC50 [3] [nM] | AC50 ([4]; HTT alternative junction mRNA, RT-qPCR, read-out: HTT AJ (increase in AJ mRNA, AC50)) [nM] | IC50 ([4]; HTT canonical junction mRNA, RT-qPCR, read-out: HTT CJ (decrease in CJ mRNA levels, IC50)) [nM] | AC50 ([5]; MYB alternative junction mRNA, RT-qPCR, read-out: MYB AJ (increase in AJ mRNA, AC50)) [nM] | IC50 ([5]; MYB canonical junction mRNA, RT-qPCR, read-out: MYB CJ (decrease in CJ mRNA levels, IC50)) [nM] | Effect of Exemplary Compounds on Cell Viability, K562 [6] | AC50 [4, 8] [nM] | IC50 [4, 9] [nM] | IC50 [4, 10] [nM] | AC50 [5, 11] [nM] | IC50 [5, 12] [nM] | IC50 [5, 13] [nM] | IC50 [7] [nM] |
| --- | --- | --- | --- | --- | --- | --- | --- | --- | --- | --- | --- | --- | --- | --- | --- |
| CN(C(=O)Nc1cn[nH]c1)c1cc2nc(N3CCNCC3)ccc2cn1 [Compound 110] | > 10000 | > 10000 | > 10000 | – | – | – | – | – | – | – | – | – | – | – | – |
| O=C(Nc1cn[nH]c1)Nc1cc2nc(N3CCNCC3)ccc2cn1 [Compound 111] | > 10000 | > 10000 | > 10000 | – | – | – | – | – | – | – | – | – | – | – | – |
| O=C(NCc1ccn[nH]1)Nc1cc2nc(N3CCNCC3)ccc2cn1 [Compound 112] | > 10000 | > 10000 | > 10000 | – | – | – | – | – | – | – | – | – | – | – | – |
| Cn1cc2cc(-c3ccc4cc(C5CCNCC5)ccc4n3)c(O)c(F)c2n1 [Compound 241] | < 100 | < 100 | < 100 | < 100 | < 100 | < 100 | < 100 | A (A represents <100 nM) | – | – | – | – | – | – | – |
| CNC(=O)c1nc(-c2cc3cn(C)nc3c(C)c2O)nc2ccc(N3CCNCC3)cc12 [Compound 501, 2-(6-hydroxy-2,7-dimethylindazol-5-yl)-N-methyl-6-(piperazin-1-yl)quinazoline-4-carboxamide] | < 100 | 100 to 1000 | 100 to 1000 | – | – | – | – | A (A represents <100 nM) | – | – | – | – | – | – | – |
| C[C@@H]1CN(c2ccc3nc(-c4cc(F)c5nc(CF)cn5c4)ncc3c2)C[C@H](C)N1 [Compound 835, 6-[(3R,5S)-3,5-dimethylpiperazin-1-yl]-2-[8-fluoro-2-(fluoromethyl)imidazo[1,2-a]pyridin-6-yl]quinazoline] | – | – | – | – | – | – | – | B (B represents 100-1000 nM) | 1000 to 10000 | 1000 to 10000 | 1000 to 10000 | 100 to 1000 | 100 to 1000 | 100 to 1000 | < 100 |
| CCc1cn2cc(-c3ncc4cc(N5C[C@@H](C)N[C@@H](C)C5)ccc4n3)cc(F)c2n1 [Compound 836] | – | – | – | – | – | – | – | C (C represents 1000-9999 nM) | > 10000 | 1000 to 10000 | 1000 to 10000 | 1000 to 10000 | > 10000 | > 10000 | 100 to 1000 |
| Cc1nc2c(F)cc(-c3ncc4cc(N5C[C@@H](C)N[C@@H](C)C5)ccc4n3)cn2c1F [Compound 837, 2-{3,8-difluoro-2-methylimidazo[1,2-a]pyridin-6-yl}-6-[(3R,5S)-3,5-dimethylpiperazin-1-yl]quinazoline] | – | – | – | – | – | – | – | C (C represents 1000-9999 nM) | 1000 to 10000 | 100 to 1000 | 100 to 1000 | 1000 to 10000 | 1000 to 10000 | 1000 to 10000 | 100 to 1000 |
| COc1nc(-c2ncc3cc(N4C[C@@H](C)N[C@@H](C)C4)ccc3n2)cn2cc(C)nc12 [Compound 838] | – | – | – | – | – | – | – | C (C represents 1000-9999 nM) | > 10000 | > 10000 | > 10000 | 100 to 1000 | 100 to 1000 | 100 to 1000 | < 100 |
| C[C@H]1CN(c2ccc3nc(-c4cc(F)c5nn(C)c(F)c5c4)ncc3c2)C[C@H](C)N1 [Compound 924] | – | – | – | – | – | – | – | C (C represents 1000-9999 nM) | 1000 to 10000 | > 10000 | > 10000 | 1000 to 10000 | 1000 to 10000 | 1000 to 10000 | 100 to 1000 |
| C[C@@H]1CN(c2ccc3nc(-c4cc(F)c5nn(C)c(F)c5c4)ncc3c2)C[C@H](C)N1 [Compound 925] | – | – | – | – | – | – | – | C (C represents 1000-9999 nM) | 100 to 1000 | 1000 to 10000 | 1000 to 10000 | 1000 to 10000 | 1000 to 10000 | 1000 to 10000 | 100 to 1000 |
